System: Botrytis cinerea (ATCC 90479)
Experiment: Botrytis cinerea hyphal growth inhibition on PDA agar (colony diameter), adjuvant with or without pyraclostrobin
Assay type: cell-based
Details: for inherent fungicidal activity on their own: adjuvant alone, at any of the concentrations tested; for Fold Change in Growth Inhibition: adjuvant concentration 50 μg/mL (Ia-Ie) or 64 μg/mL (If, Ig), 48 hours at 22° C., relative to fungicide alone; for fold increase in fungicidal activity compared to pyraclostrobin alone: pyraclostrobin at 0.06 μg/mL, against B. cinerea
Method: Percent Inhibition-The percent inhibition will be understood to represent the amount the fungicide and/or adjuvant that inhibits the visible growth of the microorganism after 48 hours incubation at 22° C. relative to vehicle treated controls. This is calculated using the following formula:
ØC=diameter of the colony grown on agar supplemented with vehicle (i.e. vehicle treated control), and
ØT=diameter of the colony grown on agar supplemented with fungicide and/or adjuvant formulated in an appropriate vehicle (i.e., solvent such as water C2H5OH, CH3OH, CH3CN, DMSO).
Fold Change—The fold change is a measure of the adjuvant/fungicide combination in inhibiting a microorganism compared to the fungicide alone. This indicates how the adjuvant performs relative to the fungicide alone. This is calculated using the following formula:
where: • INHAF=percent inhibition of fungal growth when treated with fungicide and adjuvant, and • INHF=percent inhibition of fungal growth when treated with fungicide alone.
Botrytis cinerea (ATCC 90479) was cultured on Difco Potato Dextrose Agar (PDA) for 7 days with diurnal UV cycles (12 h UV light and 12 h dark). Spores were harvested in a buffered, sterile saline solution (w/v: 0.9% NaCl with 1% Tween 80) and counted using a haemocytometer. The spore suspension was adjusted to a final concentration of 8.5x10^6 spores/mL to create a standardised inoculum.
To prepare hyphal fragments for adjuvant testing, 8.5x10^4 spores were used to inoculate 10 mL of Difco Potato Dextrose Broth in a 150×25 mm tube. The tube was incubated at 220 RPM, 22° C. for 48 hours.
To create hyphal fragments from the culture, the culture was transferred to a 50 mL plastic conical tube containing approximately 20 sterile 5 mm diameter glass beads and vortexed for 5 min. After vortexing the tube was allowed to stand for 5 min to allow large mycelial clumps to settle and then the top layer containing hyphal fragments was removed and used as inocula for growth inhibition assays.
Fungicides and adjuvants were dissolved in methanol and added to molten PDA (˜50° C.) and then the agar was distributed in the wells of 12 well multiwell plates (1 mL/well). The plates were cooled to room temperature and 10 μL of hyphal inoculum was added to the centre of each well. The plates were incubated at 22° C. for 48 hours and then the colony diameter was measured using a digital caliper. The biological growth control consisted of hyphae and vehicle (0.07% methanol), the negative control was media and vehicle (0.07% methanol).

[1] = with Pyra (pyraclostrobin) 0.0313 μg/mL
[2] = with Pyra (pyraclostrobin) 0.0625 μg/mL

Row | SMILES | inherent fungicidal activity on their own | Fold Change in Growth Inhibition [1] | Fold Change in Growth Inhibition [2] | fold increase in fungicidal activity compared to pyraclostrobin alone
1 | O=C1NC(Cc2ccccc2)C(=O)N2CCCC12 (centres unmarked) [DKP (Ia)] | did not demonstrate any inherent fungicidal activity | 1.32 | 1.15 | –
2 | O=C1CNC(=O)C(Cc2ccccc2)N1 (centres unmarked) [DKP (Ib)] | did not demonstrate any inherent fungicidal activity | 1.14 | 1.45 | –
3 | CN1C(=O)C2CCCN2C(=O)C1Cc1ccccc1 (centres unmarked) [DKP (Ic)] | did not demonstrate any inherent fungicidal activity | 1.23 | 1.52 | 1.52 fold
4 | CN1CC(=O)N(C)C(Cc2ccccc2)C1=O (centres unmarked) [DKP (Id)] | did not demonstrate any inherent fungicidal activity | 1.09 | 1.35 | –
5 | O=C1NCC(=O)N2CCCC12 (centres unmarked) [DKP (Ie)] | did not demonstrate any inherent fungicidal activity | 0.96 | 1.56 | 1.56 fold
6 | O=C1NC(Cc2ccccc2)C(=O)N2CCCCC12 (centres unmarked) [DKP (If), cyclo (-Phe-Pip) diketopiperazine] | did not demonstrate any inherent fungicidal activity | 1.34 | 1.28 | –
7 | O=C1NC(Cc2ccccc2)C(=O)N2CCC=C12 (centres unmarked) [DKP (Ig), cyclo (-Phe-dhPro) diketopiperazine] | did not demonstrate any inherent fungicidal activity | 1.22 | 1.27 | –
